Species on record: Rattus norvegicus
Type: toxicity, organism-based, Sprague-Dawley
Conditions: in vivo, po, route oral GAVAGE, […]; for ABSOLUTE EOSINOPHIL / ABSOLUTE LYMPHOCYTE / ABSOLUTE MONOCYTE / ABSOLUTE SEGMENTED NEUTROPHIL / BASOPHIL / EOSINOPHIL / ERYTHROCYTE COUNT / HEMATOCRIT / HEMOGLOBIN / LEUKOCYTE COUNT / LYMPHOCYTE / MEAN CORPUSCULAR HEMOGLOBIN / MEAN CORPUSCULAR HEMOGLOBIN CONCENTRATION / MEAN CORPUSCULAR VOLUME / MONOCYTE / NEUTROPHIL / NUCLEATED RED BLOOD CELLS / PLATELET COUNT: tissue Blood; for ALANINE AMINOTRANSFERASE / ALBUMIN / ALKALINE PHOSPHATASE / ASPARTATE AMINOTRANSFERASE / BLOOD UREA NITROGEN / CARBON DIOXIDE / CHLORIDE / CHOLESTEROL / CREATINE PHOSPHOKINASE / CREATININE / GLUCOSE / LACTATE DEHYDROGENASE / LIPASE / PHOSPHORUS / POTASSIUM / SODIUM / TOTAL BILIRUBIN / TOTAL PROTEIN / URIC ACID: tissue Plasma
[1] = 130 mg/kg, 24 h, dose level Low, time 1 day
[2] = 500 mg/kg, 6 h, dose level High, time 0.25 day
[3] = 500 mg/kg, 24 h, dose level High, time 1 day

Description: DrugMatrix - Regimen: Single

Question: Which “ABSOLUTE EOSINOPHIL” value [1] does the source give for CCOC(=O)C(C)(C)Oc1ccc(Cl)cc1 [CLOFIBRATE] here?
Answer: 55.33 CELLS/uL

Question: What about the “ABSOLUTE LYMPHOCYTE” value [1] of the same compound?
Answer: 15484.17 CELLS/uL

Question: And the “ABSOLUTE MONOCYTE” value [1]?
Answer: 278.5 CELLS/uL

Question: What about the “ABSOLUTE SEGMENTED NEUTROPHIL” value [1] of the same compound?
Answer: 965.33 CELLS/uL

Question: What about the BASOPHIL [1] of the same compound?
Answer: 0%

Question: And the EOSINOPHIL [1]?
Answer: 0.33%

Question: What about the “ERYTHROCYTE COUNT” value [1] of the same compound?
Answer: 5.03 x10E6/uL

Question: What about the HEMATOCRIT [1] of the same compound?
Answer: 32.6%

Question: What about the HEMOGLOBIN [1] of the same compound?
Answer: 13.25 G/DL

Question: And the “LEUKOCYTE COUNT” value [1]?
Answer: 16.78 x10E3/uL

Question: What about the LYMPHOCYTE [1] of the same compound?
Answer: 92.17%

Question: What about the “MEAN CORPUSCULAR HEMOGLOBIN” value [1] of the same compound?
Answer: 26.33 pg

Question: And the “MEAN CORPUSCULAR HEMOGLOBIN CONCENTRATION” value [1]?
Answer: 40.65 G/DL

Question: And the “MEAN CORPUSCULAR VOLUME” value [1]?
Answer: 64.78 fL

Question: And the MONOCYTE [1]?
Answer: 1.67%

Question: What about the NEUTROPHIL [1] of the same compound?
Answer: 5.83%

Question: What about the “NUCLEATED RED BLOOD CELLS” value [1] of the same compound?
Answer: 0 /100WBC

Question: And the “PLATELET COUNT” value [1]?
Answer: 862.83 x10E3/uL

Question: And the “ALANINE AMINOTRANSFERASE” value [1]?
Answer: 67 u/L

Question: And the ALBUMIN [1]?
Answer: 4.33 G/DL

Question: And the “ALKALINE PHOSPHATASE” value [1]?
Answer: 318.17 u/L

Question: And the “ASPARTATE AMINOTRANSFERASE” value [1]?
Answer: 75.17 u/L

Question: And the “BLOOD UREA NITROGEN” value [1]?
Answer: 12.67 mg/dL

Question: What about the “CARBON DIOXIDE” value [1] of the same compound?
Answer: 32 mmol/L

Question: And the CHLORIDE [1]?
Answer: 100 MEQ/L

Question: What about the CHOLESTEROL [1] of the same compound?
Answer: 47.33 mg/dL

Question: What about the “CREATINE PHOSPHOKINASE” value [1] of the same compound?
Answer: 215.5 u/L

Question: What about the CREATININE [1] of the same compound?
Answer: 0.16 mg/dL

Question: What about the GLUCOSE [1] of the same compound?
Answer: 132.67 mg/dL

Question: And the “LACTATE DEHYDROGENASE” value [1]?
Answer: 108.83 u/L

Question: And the LIPASE [1]?
Answer: 10.5 u/L

Question: And the PHOSPHORUS [1]?
Answer: 9.12 mg/dL

Question: What about the POTASSIUM [1] of the same compound?
Answer: 6.21 MEQ/L

Question: What about the SODIUM [1] of the same compound?
Answer: 142.78 MEQ/L

Question: What about the “TOTAL BILIRUBIN” value [1] of the same compound?
Answer: 0.17 mg/dL

Question: What about the “TOTAL PROTEIN” value [1] of the same compound?
Answer: 5.58 G/DL

Question: And the “URIC ACID” value [1]?
Answer: 1.07 mg/dL

Question: What about the “ABSOLUTE EOSINOPHIL” value [2] of the same compound?
Answer: 41.33 CELLS/uL

Question: What about the “ABSOLUTE LYMPHOCYTE” value [2] of the same compound?
Answer: 7521 CELLS/uL

Question: What about the “ABSOLUTE MONOCYTE” value [2] of the same compound?
Answer: 204.83 CELLS/uL

Question: And the “ABSOLUTE SEGMENTED NEUTROPHIL” value [2]?
Answer: 899.5 CELLS/uL

Question: And the BASOPHIL [2]?
Answer: 0%

Question: What about the EOSINOPHIL [2] of the same compound?
Answer: 0.5%

Question: What about the “ERYTHROCYTE COUNT” value [2] of the same compound?
Answer: 5.56 x10E6/uL

Question: What about the HEMATOCRIT [2] of the same compound?
Answer: 35.4%

Question: What about the HEMOGLOBIN [2] of the same compound?
Answer: 13.87 G/DL

Question: What about the “LEUKOCYTE COUNT” value [2] of the same compound?
Answer: 8.67 x10E3/uL

Question: And the LYMPHOCYTE [2]?
Answer: 86.5%

Question: What about the “MEAN CORPUSCULAR HEMOGLOBIN” value [2] of the same compound?
Answer: 24.97 pg

Question: What about the “MEAN CORPUSCULAR HEMOGLOBIN CONCENTRATION” value [2] of the same compound?
Answer: 39.18 G/DL

Question: What about the “MEAN CORPUSCULAR VOLUME” value [2] of the same compound?
Answer: 63.73 fL

Question: And the MONOCYTE [2]?
Answer: 2.33%

Question: What about the NEUTROPHIL [2] of the same compound?
Answer: 10.67%

Question: What about the “NUCLEATED RED BLOOD CELLS” value [2] of the same compound?
Answer: 0 /100WBC

Question: What about the “PLATELET COUNT” value [2] of the same compound?
Answer: 1195.5 x10E3/uL

Question: What about the “ALANINE AMINOTRANSFERASE” value [2] of the same compound?
Answer: 52.5 u/L

Question: What about the ALBUMIN [2] of the same compound?
Answer: 4.53 G/DL

Question: What about the “ALKALINE PHOSPHATASE” value [2] of the same compound?
Answer: 309.5 u/L

Question: What about the “ASPARTATE AMINOTRANSFERASE” value [2] of the same compound?
Answer: 94.5 u/L

Question: And the “BLOOD UREA NITROGEN” value [2]?
Answer: 9.33 mg/dL

Question: What about the “CARBON DIOXIDE” value [2] of the same compound?
Answer: 22.5 mmol/L

Question: And the CHLORIDE [2]?
Answer: 100.67 MEQ/L

Question: And the CHOLESTEROL [2]?
Answer: 65.33 mg/dL

Question: What about the “CREATINE PHOSPHOKINASE” value [2] of the same compound?
Answer: 333.17 u/L

Question: What about the CREATININE [2] of the same compound?
Answer: 0.16 mg/dL

Question: What about the GLUCOSE [2] of the same compound?
Answer: 130.33 mg/dL

Question: And the “LACTATE DEHYDROGENASE” value [2]?
Answer: 146.83 u/L

Question: And the LIPASE [2]?
Answer: 9.83 u/L

Question: And the PHOSPHORUS [2]?
Answer: 11.68 mg/dL

Question: And the POTASSIUM [2]?
Answer: 6.42 MEQ/L

Question: And the SODIUM [2]?
Answer: 143.4 MEQ/L

Question: And the “TOTAL BILIRUBIN” value [2]?
Answer: 0.18 mg/dL

Question: And the “TOTAL PROTEIN” value [2]?
Answer: 6 G/DL

Question: What about the “URIC ACID” value [2] of the same compound?
Answer: 1.37 mg/dL

Question: What about the “ABSOLUTE EOSINOPHIL” value [3] of the same compound?
Answer: 42 CELLS/uL

Question: And the “ABSOLUTE LYMPHOCYTE” value [3]?
Answer: 10953.5 CELLS/uL

Question: What about the “ABSOLUTE MONOCYTE” value [3] of the same compound?
Answer: 221.67 CELLS/uL

Question: What about the “ABSOLUTE SEGMENTED NEUTROPHIL” value [3] of the same compound?
Answer: 1432.83 CELLS/uL

Question: And the BASOPHIL [3]?
Answer: 0%

Question: What about the EOSINOPHIL [3] of the same compound?
Answer: 0.33%

Question: And the “ERYTHROCYTE COUNT” value [3]?
Answer: 5.6 x10E6/uL

Question: What about the HEMATOCRIT [3] of the same compound?
Answer: 35.22%

Question: And the HEMOGLOBIN [3]?
Answer: 14.02 G/DL

Question: And the “LEUKOCYTE COUNT” value [3]?
Answer: 12.65 x10E3/uL

Question: What about the LYMPHOCYTE [3] of the same compound?
Answer: 86.83%

Question: What about the “MEAN CORPUSCULAR HEMOGLOBIN” value [3] of the same compound?
Answer: 25.02 pg

Question: What about the “MEAN CORPUSCULAR HEMOGLOBIN CONCENTRATION” value [3] of the same compound?
Answer: 39.8 G/DL

Question: What about the “MEAN CORPUSCULAR VOLUME” value [3] of the same compound?
Answer: 62.93 fL

Question: What about the MONOCYTE [3] of the same compound?
Answer: 1.67%

Question: And the NEUTROPHIL [3]?
Answer: 11.17%

Question: What about the “NUCLEATED RED BLOOD CELLS” value [3] of the same compound?
Answer: 0 /100WBC

Question: What about the “PLATELET COUNT” value [3] of the same compound?
Answer: 1112.33 x10E3/uL

Question: What about the “ALANINE AMINOTRANSFERASE” value [3] of the same compound?
Answer: 93.33 u/L

Question: And the ALBUMIN [3]?
Answer: 4.55 G/DL

Question: And the “ALKALINE PHOSPHATASE” value [3]?
Answer: 411.33 u/L

Question: And the “ASPARTATE AMINOTRANSFERASE” value [3]?
Answer: 162.83 u/L

Question: And the “BLOOD UREA NITROGEN” value [3]?
Answer: 11.67 mg/dL

Question: What about the “CARBON DIOXIDE” value [3] of the same compound?
Answer: 33.5 mmol/L

Question: And the CHLORIDE [3]?
Answer: 97.83 MEQ/L

Question: And the CHOLESTEROL [3]?
Answer: 34.83 mg/dL

Question: What about the “CREATINE PHOSPHOKINASE” value [3] of the same compound?
Answer: 245.67 u/L

Question: What about the CREATININE [3] of the same compound?
Answer: 0.19 mg/dL

Question: And the GLUCOSE [3]?
Answer: 137.17 mg/dL

Question: And the “LACTATE DEHYDROGENASE” value [3]?
Answer: 114.17 u/L

Question: And the LIPASE [3]?
Answer: 9.83 u/L

Question: What about the PHOSPHORUS [3] of the same compound?
Answer: 10.23 mg/dL

Question: What about the POTASSIUM [3] of the same compound?
Answer: 6.67 MEQ/L

Question: And the SODIUM [3]?
Answer: 143.3 MEQ/L

Question: And the “TOTAL BILIRUBIN” value [3]?
Answer: 0.25 mg/dL

Question: What about the “TOTAL PROTEIN” value [3] of the same compound?
Answer: 5.77 G/DL

Question: What about the “URIC ACID” value [3] of the same compound?
Answer: 1.18 mg/dL

Reference: ChEMBL document CHEMBL3885881, “DrugMatrix”
